Experimental data taken from patent US20060264410A1, “19,26,27-trinor-1alpha,25-dihydroxyvitamin D3 compounds” (Wisconsin Alumni Research Foundation, priority 2005, published 2006).
“Also recorded” adds a separate entry of the source.

How the values were obtained:
[1] = target: T1, vitamin D receptor (Homo sapiens, UniProt P11473); settings: from '352, '861 and '622 patents; cited from earlier work
T1 sequence (P11473 1-427): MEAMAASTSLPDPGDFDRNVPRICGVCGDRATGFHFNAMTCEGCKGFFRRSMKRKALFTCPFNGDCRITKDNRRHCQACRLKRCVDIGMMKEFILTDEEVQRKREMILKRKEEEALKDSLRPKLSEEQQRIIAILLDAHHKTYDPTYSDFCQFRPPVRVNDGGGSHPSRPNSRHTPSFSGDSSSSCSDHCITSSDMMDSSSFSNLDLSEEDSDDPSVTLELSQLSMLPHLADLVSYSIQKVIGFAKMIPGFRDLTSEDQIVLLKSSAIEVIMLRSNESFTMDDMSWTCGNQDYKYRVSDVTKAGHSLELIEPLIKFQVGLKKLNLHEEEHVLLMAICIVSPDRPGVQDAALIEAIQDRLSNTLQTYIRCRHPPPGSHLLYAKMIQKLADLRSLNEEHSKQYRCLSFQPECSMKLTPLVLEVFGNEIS

[2] = test system: cell differentiation; settings: prior art; cited from earlier work
[3] = prior art; b9 values compared to 1α,25-dihydroxyvitamin D3; cited from earlier work
[4] = test system: 24-hydroxylase (24Ohase) gene promoter; assay: In vitro transcription assay (luciferase reporter in ROS 17/2.8 cells); format: cell-based; settings: 24Ohase promoter-luciferase, FIG. 4
Experimental: Transcription activity was measured in ROS 17/2.8 (bone) cells that were stably transfected with a 24-hydroxylase (24Ohase) gene promoter upstream of a luciferase reporter gene (Arbour et al., 1998). Cells were given a range of doses. Sixteen hours after dosing the cells were harvested and luciferase activities were measured using a luminometer. RLU=relative luciferase units.

[5] = test system: HL-60 cells; assay: HL-60 differentiation (nitro blue tetrazolium reduction); format: cell-based, Human; settings: FIG. 3
Experimental: The study drugs were dissolved in ethanol and the concentrations determined using UV spectrophotometry. Serial dilutions were prepared so that a range of drug concentrations could be tested without changing the final concentration of ethanol (≦0.2%) present in the cell cultures.
Human promyelocytic leukemia (HL60) cells were grown in RPMI-1640 medium containing 10% fetal bovine serum. The cells were incubated at 37° C. in the presence of 5% CO2.
HL60 cells were plated at 1.2×10^5 cells/mL. Eighteen hours after plating, cells in duplicate were treated with drug. Four days later, the cells were harvested and a nitro blue tetrazolium reduction assay was performed (Collins et al., 1979; J. Exp. Med. 149:969-974). The percentage of differentiated cells was determined by counting a total of 200 cells and recording the number that contained intracellular black-blue formazan deposits. Verification of differentiation to monocytic cells was determined by measuring phagocytic activity (data not shown).

[6] = target: T2, full-length recombinant rat vitamin D receptor (Rattus norvegicus, UniProt P13053); assay: Vitamin D receptor binding, competition with [3H]-1,25-(OH)2-D3; settings: FIGS. 1 and 2
T2 construct: Full-length recombinant rat receptor was expressed in E. coli BL21(DE3) Codon Plus RIL cells; histidine tag (C); made in house; host or cells: E. coli BL21(DE3) Codon Plus RIL
T2 sequence (P13053 1-423): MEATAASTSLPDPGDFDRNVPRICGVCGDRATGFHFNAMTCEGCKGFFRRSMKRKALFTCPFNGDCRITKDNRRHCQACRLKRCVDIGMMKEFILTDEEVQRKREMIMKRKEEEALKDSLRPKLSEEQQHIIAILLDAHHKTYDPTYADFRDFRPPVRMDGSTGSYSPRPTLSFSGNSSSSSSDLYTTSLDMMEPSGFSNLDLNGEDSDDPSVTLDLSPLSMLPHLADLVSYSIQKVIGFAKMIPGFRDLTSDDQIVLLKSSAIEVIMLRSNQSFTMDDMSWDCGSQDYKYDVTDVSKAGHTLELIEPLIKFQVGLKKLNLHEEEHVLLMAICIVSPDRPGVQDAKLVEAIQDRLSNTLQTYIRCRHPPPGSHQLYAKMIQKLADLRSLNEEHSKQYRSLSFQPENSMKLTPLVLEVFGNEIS
Experimental: Full-length recombinant rat receptor was expressed in E. coli BL21(DE3) Codon Plus RIL cells and purified to homogeneity using two different column chromatography systems. The first system was a nickel affinity resin that utilizes the C-terminal histidine tag on this protein. The protein that was eluted from this resin was further purified using ion exchange chromatography (S-Sepharose Fast Flow). Aliquots of the purified protein were quick frozen in liquid nitrogen and stored at −80° C. until use. For use in binding assays, the protein was diluted in TEDK50 (50 mM Tris, 1.5 mM EDTA, pH 7.4, 5 mM DTT, 150 mM KCl) with 0.1% Chaps detergent. The receptor protein and ligand concentration was optimized such that no more than 20% of the added radiolabeled ligand was bound to the receptor.
Unlabeled ligands were dissolved in ethanol and the concentrations determined using UV spectrophotometry (1,25(OH)2D3: molar extinction coefficient=18,200 and λmax=265 nm; Analogs: molar extinction coefficient=42,000 and λmax=252 nm). Radiolabeled ligand (^3H-1,25(OH)2D3, ˜159 Ci/mmol) was added in ethanol at a final concentration of 1 nM.
Radiolabeled and unlabeled ligands were added to 100 mcl of the diluted protein at a final ethanol concentration of ≦10%, mixed and incubated overnight on ice to reach binding equilibrium. The following day, 100 mcl of hydroxylapatite slurry (50%) was added to each tube and mixed at 10-minute intervals for 30 minutes. The hydroxylapaptite was collected by centrifugation and then washed three times with Tris-EDTA buffer (50 mM Tris, 1.5 mM EDTA, pH 7.4) containing 0.5% Titron X-100. After the final wash, the pellets were transferred to scintillation vials containing 4 mL of Biosafe II scintillation cocktail, mixed and placed in a scintillation counter. Total binding was determined from the tubes containing only radiolabeled ligand.

[7] = Intestinal calcium transport (everted gut sac method); format: in vivo, Sprague-Dawley rats; settings: rats, four ip doses; FIGS. 6 and 8
Experimental: (§1) Male, weanling Sprague-Dawley rats were placed on Diet 11 (Suda et al. J. Nutr. 100:1049, 1970) (0.47% Ca) diet+vitamins AEK for one week followed by Diet 11 (0.02% Ca)+AEK for 3 weeks. The rats were then switched to a diet containing 0.47% Ca for one week followed by two weeks on the diet containing 0.02% Ca. Dose administration began during the last week on 0.02% calcium diet. Four consecutive ip doses were given approximately 24 hours apart. Twenty-four hours after the last dose, blood was collected from the severed neck and the concentration of serum calcium determined as a measure of bone calcium mobilization. The first 10 cm of the intestine was also collected for intestinal calcium transport analysis using the everted gut sac method.

[8] = Bone calcium mobilization (serum calcium); format: in vivo, Sprague-Dawley rats; settings: rats, four ip doses, even at 7,020 pmol/day; FIGS. 5 and 7
Experimental: as §1

In the case of “1α-hydroxy-2-methylene-19-nor-(20S)-homopregnacalciferol”, the “binding activity to the vitamin D receptor” value (shortened to “binding activity”) [1] is given as “relatively high binding activity”, the cell differentiation activity [2] is given as “relatively high cell differentiation activity” and the “calcemic / calcium mobilizing activity” value [3] is given as “little if any calcemic activity”.

In the case of “1α-hydroxy-2-methylene-19-nor-bishomopregnacalciferol”, the “binding activity” value [1] is given as “relatively high binding activity”, the cell differentiation activity [2] is given as “relatively high cell differentiation activity” and the “calcemic / calcium mobilizing activity” value [3] is given as “little if any calcemic activity”.

For C[C@H](CCCC(C)(C)O)[C@H]1CC[C@H]2/C(=C/C=C3C[C@@H](O)C[C@H](O)C3)CCC[C@]12C [1α,25-dihydroxy-19-nor-vitamin D3], the cell differentiation activity [2] is listed as “high potency” and the “calcemic / calcium mobilizing activity” value [3] is listed as “very low calcium mobilizing activity”.

In the case of C=C1[C@H](O)CC(=C/C=C2\CCC[C@]3(C)[C@@H](CC)CC[C@@H]23)C[C@H]1O [1α-Hydroxy-2-methylene-19-nor-pregnacalciferol], the “binding activity” value [1] is given as “relatively high binding activity”, the cell differentiation activity [2] is given as “relatively high cell differentiation activity” and the “calcemic / calcium mobilizing activity” value [3] is given as “little if any calcemic activity”.

For C=C1[C@H](O)CC(=C/C=C2\CCC[C@]3(C)[C@@H]([C@@H](C)CCCCO)CC[C@@H]23)C[C@H]1O [BM, 2-methylene-19,26,27-trinor-(20S)-1α,25-dihydroxyvitamin D3], the “activity in causing transcription compared with 1α,25-dihydroxyvitamin D3” value [4] was “slightly less activity”, the “activity in inducing differentiation of HL-60 cells compared with 1α,25-dihydroxyvitamin D3” value (from here on “activity in inducing differentiation”) [5] was “only slightly less active; also recorded: about the same activity” and the “activity in binding to the vitamin D receptor compared with 1α,25-dihydroxyvitamin D3” value [6] was “slightly less active”. For the same compound, the intestinal calcium transport [7] was “do not elevate intestinal calcium transport” and the “calcemic activity measured by bone calcium mobilization” value (shortened to “calcemic activity measured”) [8] was “no calcemic activity”.

For CC(CCCCO)C1CCC2C(=CC=C3CC(O)C(C)C(O)C3)CCCC21C [P10, 2α-methyl-19,26,27-trinor-(20S)-1α,25-dihydroxyvitamin D3], the “activity in causing transcription compared with 1α,25-dihydroxyvitamin D3” value [4] was “slightly less activity”, the “activity in inducing differentiation” value [5] was “less activity” and the “activity in binding to the vitamin D receptor compared with 1α,25-dihydroxyvitamin D3” value [6] was “slightly more active”. For the same compound, the intestinal calcium transport [7] was “do not elevate intestinal calcium transport” and the “calcemic activity measured” value [8] was “no calcemic activity”.

In the case of CC1[C@H](O)CC(=C/C=C2\CCC[C@]3(C)[C@@H]([C@@H](C)CCCCO)CC[C@@H]23)C[C@H]1O (stereo partly drawn) [T-74, 2β-methyl-19,26,27-trinor-(20S)-1α,25-dihydroxyvitamin D3], the “activity in causing transcription compared with 1α,25-dihydroxyvitamin D3” value [4] is reported as “significantly less activity”, the “activity in inducing differentiation” value [5] is reported as “significantly less activity” and the “activity in binding to the vitamin D receptor compared with 1α,25-dihydroxyvitamin D3” value [6] is reported as “significantly less active”. For the same compound, the intestinal calcium transport [7] was “do not elevate intestinal calcium transport” and the “calcemic activity measured” value [8] was “no calcemic activity”.
